Assay results as given in patent US20230122510A1, “CANNABINOID DERIVATIVES” (CANOPY GROWTH CORPORATION, priority 2019, published 2023).

How the values were obtained:
human CB1 receptor = target: T1, human CB1 receptor (Homo sapiens, UniProt P21554); assay: CB1 radioligand competitive binding assay ([3H]CP 55,940 displacement); conditions: for IC50: displacement of 0.8 nM [3H]CP 55,940, membranes of CHO-K1 cells expressing human CB1 receptor; for Selectivity CB1: fold difference between CB1 and CB2 binding, (CB1 over CB2)
T1 construct: host or cells: CHO-K1
T1 sequence (P21554 whole entry): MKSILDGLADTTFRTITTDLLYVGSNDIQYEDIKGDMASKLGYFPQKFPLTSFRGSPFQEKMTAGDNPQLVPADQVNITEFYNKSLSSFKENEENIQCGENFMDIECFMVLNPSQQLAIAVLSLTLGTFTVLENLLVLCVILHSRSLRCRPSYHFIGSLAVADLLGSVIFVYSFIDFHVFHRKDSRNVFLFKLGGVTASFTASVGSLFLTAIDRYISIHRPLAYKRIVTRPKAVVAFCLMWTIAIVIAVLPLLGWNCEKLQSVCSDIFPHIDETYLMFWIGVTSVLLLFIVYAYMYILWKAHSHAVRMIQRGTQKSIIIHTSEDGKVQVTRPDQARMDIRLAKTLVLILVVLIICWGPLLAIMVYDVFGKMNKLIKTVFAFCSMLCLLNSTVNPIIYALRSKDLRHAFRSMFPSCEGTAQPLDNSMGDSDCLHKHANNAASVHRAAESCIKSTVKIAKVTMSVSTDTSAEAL

human CB2 receptor = target: T2, human CB2 receptor (Homo sapiens, UniProt P34972); assay: CB2 radioligand competitive binding assay ([3H]CP 55,940 displacement); conditions: for IC50: displacement of 0.6 nM [3H]CP55,940, membranes of CHO-K1 cells expressing human CB2 receptor; for Selectivity CB2: fold difference between CB1 and CB2 binding, the receptor with higher binding affinity (CB2 over CB1)
T2 construct: host or cells: CHO-K1
T2 sequence (P34972 whole entry): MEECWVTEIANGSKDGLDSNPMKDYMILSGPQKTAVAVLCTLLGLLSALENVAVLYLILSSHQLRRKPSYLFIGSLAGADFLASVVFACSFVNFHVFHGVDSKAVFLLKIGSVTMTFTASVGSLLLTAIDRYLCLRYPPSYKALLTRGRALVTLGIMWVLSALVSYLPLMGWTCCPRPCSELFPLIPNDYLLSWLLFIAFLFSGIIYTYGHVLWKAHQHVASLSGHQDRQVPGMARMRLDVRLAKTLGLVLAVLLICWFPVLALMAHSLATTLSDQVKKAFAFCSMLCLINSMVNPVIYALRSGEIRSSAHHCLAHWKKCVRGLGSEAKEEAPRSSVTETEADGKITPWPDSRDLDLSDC
Description: Compounds of the present disclosure were tested for CB1 receptor binding affinity and for CB2 receptor binding affinity. As used herein, “binding affinity” is represented by the IC50 value, which was experimentally determined as described herein. The lower the IC50 value the higher the binding affinity. A compound of the present disclosure may be said to have “binding selectivity” if it has a higher binding affinity for one receptor compared to the other.
The membranes were prepared from CHO-K1 (Chinese hamster ovary) cells stably transfected with the human CB2 receptor (Cat. #ES-111-C; Perkin Elmer, Boston, Mass.). The cells were grown adherently and maintained in Ham's F12 medium containing 10% fetal bovine serum (FBS), penicillin, streptomycin and geneticin (G418) at 37° C. in a humid atmosphere of 5% CO2 following the manufacturer's instructions.
For membrane preparation the cells were washed with PBS and scraped off the plates in cold homogenization buffer (25 mM HEPES (pH 7.4), 2 mM EDTA) containing protease inhibitor cocktail (Sigma Cat. #P8340). The cell suspension was homogenized with a Pro-PK-01200D Polytron Homogenizer (Pro Scientific) and then centrifuged for 30 min at 120,000×g. The supernatant was discarded and the pellet was re-suspended in the homogenization buffer and stored at −80° C. until the time of use.
In this experiment, 3H radiolabeled CP 55,940, i.e. [3H]CP 55,940 (Perkin Elmer, Boston, Mass.), was used as a radioligand for the CB2 receptor to determine the binding affinity of compounds for the CB2 receptor (Scheme 6; above).
The competition binding experiments (single dose and dose-response) were performed by incubating 0.6 nM of [3H]CP55,940 (specific activity 101 Ci/mmol, Perkin Elmer) and different concentrations of compounds disclosed herein with membranes prepared as above from CHO-K1 cells expressing human CB2 receptor (1 μg of protein/well), 50 mM Tris-HCl (pH 7.4), 5 mM MgCl2, 1 mM CaCl2, and 2 mg/mL BSA.
For the single dose experiments, the compound stocks (usually 10 mM in DMSO) were diluted to working stocks in the binding buffer to give the final compound concentrations of 10 μM and 1 μM. For the dose-response experiments the test compounds were sequentially diluted to provide the desired concentration range for the […] determination. In each case the compounds were pre-incubated with the membrane for 20 min, before adding the radioligand.
After incubation with the radioligand for 60 min at 37° C., the incubation was terminated by rapid filtration of assay mixture through MultiScreen®HTS^+ 96-well filter plates (Millipore, Cat. #MSFCNXB), pre-soaked for 60 min with 50 mM Tris-HCl (pH 7.4) containing 0.33% polyethylenimine (PEI). The nonspecific binding (NSB) was determined in the presence of 10 μM unlabelled CP55,940. After drying the filter plate at 50° C. for at least 60 min, the filter-bound radioactivity was determined by scintillation spectrometry using the 1450 MicroBeta Plate Counter (Perkin Elmer, Boston, Mass.). From the dose-response experiments, the IC50 values were determined (see Table 1, CB2 IC50).
Where the test compound had about the same affinity for both receptors, this is represented by a value of 1.00 in the column for both receptors.

In the case of `CCCCCc1cc(O)c(C/C=C(\C)CCC=C(C)C)c(O)c1-c1ccncc1` [Compound 14, 2-(3,7-dimethylocta-2,6-dien-1-yl)-5-pentyl-4-(pyridin-4-yl)benzene-1,3-diol], the IC50 (human CB1 receptor) is reported as 1 to 4.99 µM, the IC50 (human CB2 receptor) is reported as 0.5 to 0.99 µM and the “Selectivity CB2” value (human CB2 receptor) is reported as 2.27 fold.
In the case of `CCCCCc1cc(O)c(C/C=C(\C)CCC=C(C)C)c(O)c1-c1ccc2[nH]ncc2c1` [Compound 41, 2-(3,7-dimethylocta-2,6-dien-1-yl)-4-(1H-indazol-5-yl)-5-pentylbenzene-1,3-diol], the IC50 (human CB1 receptor) is reported as under 0.5 µM, the “Selectivity CB1” value (human CB1 receptor) is reported as 79.18 fold and the IC50 (human CB2 receptor) is reported as 0.5 to 0.99 µM.
`CCCCCc1cc(O)c(C/C=C(\C)CCC=C(C)C)c(O)c1-c1cncs1` [Compound 18, 2-(3,7-dimethylocta-2,6-dien-1-yl)-5-pentyl-4-(thiazol-5-yl) benzene-1,3-diol] was tested, and the IC50 (human CB1 receptor) was 1 to 4.99 µM, the IC50 (human CB2 receptor) was 0.5 to 0.99 µM and the “Selectivity CB2” value (human CB2 receptor) was 2.32 fold.
`CCCCCc1cc(O)c(C/C=C(\C)CCC=C(C)C)c(O)c1-c1c(C)noc1C` [Compound 37, 4-(3,5-dimethylisoxazol-4-yl)-2-(3,7-dimethylocta-2,6-dien-1-yl)-5-pentylbenzene-1,3-diol] was tested, and the IC50 (human CB1 receptor) was over 5 µM, the IC50 (human CB2 receptor) was 1 to 4.99 µM and the “Selectivity CB2” value (human CB2 receptor) was 7.14 fold.
In the case of `CCCCCc1cc(O)c(C/C=C(\C)CCC=C(C)C)c(O)c1-c1cn[nH]c1` [Compound 38, 2-(3,7-dimethylocta-2,6-dien-1-yl)-5-pentyl-4-(1H-pyrazol-4-yl) benzene-1,3-diol], the IC50 (human CB1 receptor) is reported as 0.5 to 0.99 µM, the IC50 (human CB2 receptor) is reported as 0.5 to 0.99 µM and the “Selectivity CB2” value (human CB2 receptor) is reported as 1.21 fold.
In the case of `CCCCCc1cc(O)c(C/C=C(\C)CCC=C(C)C)c(O)c1-c1ccc2nccnc2c1` [Compound 40, 2-(3,7-dimethylocta-2,6-dien-1-yl)-5-pentyl-4-(quinoxalin-6-yl)benzene-1,3-diol], the IC50 (human CB1 receptor) is reported as 0.5 to 0.99 µM, the “Selectivity CB1” value (human CB1 receptor) is reported as 1.65 fold and the IC50 (human CB2 receptor) is reported as 1 to 4.99 µM.
In the case of `CCCCCc1cc(O)c(C/C=C(\C)CCC=C(C)C)c(O)c1-c1cc2ccccc2o1` [Compound 32, 4-(benzofuran-2-yl)-2-(3,7-dimethylocta-2,6-dien-1-yl)-5-pentylbenzene-1,3-diol], the IC50 (human CB1 receptor) is reported as 0.5 to 0.99 µM, the “Selectivity CB1” value (human CB1 receptor) is reported as 1.16 fold and the IC50 (human CB2 receptor) is reported as 1 to 4.99 µM.
For `CCCCCc1cc(O)c(C/C=C(\C)CCC=C(C)C)c(O)c1-c1ccnc(C)c1` [Compound 39, 2-(3,7-dimethylocta-2,6-dien-1-yl)-4-(2-methylpyridin-4-yl)-5-pentylbenzene-1,3-diol], the IC50 (human CB1 receptor) was 1 to 4.99 µM, the IC50 (human CB2 receptor) was 0.5 to 0.99 µM and the “Selectivity CB2” value (human CB2 receptor) was 2.18 fold.
With `CCCCCc1cc(O)c(C/C=C(\C)CCC=C(C)C)c(O)c1-c1ccnn1C` [Compound 35, (E)-2-(3,7-dimethylocta-2,6-dien-1-yl)-4-(1-methyl-1H-pyrazol-5-yl)-5-pentylbenzene-1,3-diol] the IC50 (human CB1 receptor) was 1 to 4.99 µM, the IC50 (human CB2 receptor) was 1 to 4.99 µM and the “Selectivity CB2” value (human CB2 receptor) was 1.21 fold.
`CCCCCc1cc(O)c(C/C=C(\C)CCC=C(C)C)c(O)c1-c1cnc2ccccc2c1` [Compound 42, 2-(3,7-dimethylocta-2,6-dien-1-yl)-5-pentyl-4-(quinolin-3-yl) benzene-1,3-diol] was tested, and the IC50 (human CB1 receptor) was 0.5 to 0.99 µM, the “Selectivity CB1” value (human CB1 receptor) was 2.69 fold and the IC50 (human CB2 receptor) was 1 to 4.99 µM.
With `CCCc1cc(O)c(C/C=C(\C)CCC=C(C)C)c(O)c1-c1cc2ccccc2o1` [Compound 44, 4-(benzofuran-2-yl)-2-(3,7-dimethylocta-2,6-dien-1-yl)-5-propylbenzene-1,3-diol] the IC50 (human CB1 receptor) was 0.5 to 0.99 µM, the “Selectivity CB1” value (human CB1 receptor) was 1.67 fold and the IC50 (human CB2 receptor) was 1 to 4.99 µM.
In the case of `CCCCCc1cc(O)c(C/C=C(\C)CCC=C(C)C)c(O)c1-c1cncnc1` [Compound 13, 2-(3,7-dimethylocta-2,6-dien-1-yl)-5-pentyl-4-(pyrimidin-5-yl) benzene-1,3-diol], the IC50 (human CB1 receptor) is reported as 1 to 4.99 µM, the IC50 (human CB2 receptor) is reported as 1 to 4.99 µM and the “Selectivity CB2” value (human CB2 receptor) is reported as 1.85 fold.
`CCCCCc1cc(O)c(C/C=C(\C)CCC=C(C)C)c(O)c1-c1ccco1` [Compound 15, 2-(3,7-dimethylocta-2,6-dien-1-yl)-4-(furan-2-yl)-5-pentylbenzene-1,3-diol] was tested, and the IC50 (human CB1 receptor) was 1 to 4.99 µM, the IC50 (human CB2 receptor) was 1 to 4.99 µM and the “Selectivity CB2” value (human CB2 receptor) was 2.11 fold.
For `CCCCCc1cc(O)c(C/C=C(\C)CCC=C(C)C)c(O)c1-c1ccsc1` [Compound 17, 2-(3,7-dimethylocta-2,6-dien-1-yl)-5-pentyl-4-(thiophen-3-yl)benzene-1,3-diol], the IC50 (human CB1 receptor) was 1 to 4.99 µM, the IC50 (human CB2 receptor) was 0.5 to 0.99 µM and the “Selectivity CB2” value (human CB2 receptor) was 2.10 fold.
For `CCCCCc1cc(O)c(C/C=C(\C)CCC=C(C)C)c(O)c1-c1cc(C)cs1` [Compound 34, 2-(3,7-dimethylocta-2,6-dien-1-yl)-4-(4-methylthiophen-2-yl)-5-pentylbenzene-1,3-diol], the IC50 (human CB1 receptor) was 0.5 to 0.99 µM, the IC50 (human CB2 receptor) was under 0.5 µM and the “Selectivity CB2” value (human CB2 receptor) was 2.15 fold.
In the case of `CCCc1cc(O)c(C/C=C(\C)CCC=C(C)C)c(O)c1-c1ccsc1` [Compound 43, 2-(3,7-dimethylocta-2,6-dien-1-yl)-5-propyl-4-(thiophen-3-yl) benzene-1,3-diol], the IC50 (human CB1 receptor) is reported as 1 to 4.99 µM, the IC50 (human CB2 receptor) is reported as 0.5 to 0.99 µM and the “Selectivity CB2” value (human CB2 receptor) is reported as 2.26 fold.
In the case of `CCCCCc1cc(O)c(C/C=C(\C)CCC=C(C)C)c(O)c1-c1cc2ccccc2s1` [Compound 33, 4-(benzo[b]thiophen-2-yl)-2-(3,7-dimethylocta-2,6-dien-1-yl)-5-pentylbenzene-1,3-diol], the IC50 (human CB1 receptor) is reported as 1 to 4.99 µM, the IC50 (human CB2 receptor) is reported as 0.5 to 0.99 µM and the “Selectivity CB2” value (human CB2 receptor) is reported as 1.45 fold.
For `CCCCCc1cc(O)c(C/C=C(\C)CCC=C(C)C)c(O)c1-c1cccc(N2CCOCC2)c1` [Compound 36, 3-(3,7-dimethylocta-2,6-dien-1-yl)-3′-morpholino-6-pentyl-[1,1′-biphenyl]-2,4-diol], the IC50 (human CB1 receptor) was under 0.5 µM, the IC50 (human CB2 receptor) was under 0.5 µM and the “Selectivity CB2” value (human CB2 receptor) was 8.93 fold.
